Experimental findings from ChEMBL document CHEMBL4177599, “The antitubercular activity of various nitro(triazole/imidazole)-based compounds” (Bioorg Med Chem, 2017) are described below.

In brackets after ≈: the same amount, converted by molar mass.

Holding throughout (assay type): functional, organism-based
Experiment [1] relates to Mycobacterium tuberculosis. Kind of experiment: Antitubercular activity against isoniazid-resistant Mycobacterium tuberculosis H37Rv INH-R1 harboring katG Y155 mutant after 5 days.
Experiment [2] deals with Mycobacterium tuberculosis. Kind of experiment: Antitubercular activity against rifampicin-resistant Mycobacterium tuberculosis H37Rv RIF-R1 harboring rpoB S522L mutant after 5 days.
For experiment [3], the system named is Mycobacterium tuberculosis. Nature of the experiment: Antitubercular activity against fluoroquinolone-resistant Mycobacterium tuberculosis H37Rv harboring gyrB D94N mutant after 5 days.
For experiment [4], the system named is Mycobacterium tuberculosis. Kind of experiment: Antitubercular activity against isoniazid-resistant Mycobacterium tuberculosis INH-R2 ATCC 35822 after 5 days. The note with it: INH-R2 ATCC 35822, 120 h.
Experiment [5] relates to Mycobacterium tuberculosis. Nature of the experiment: Antitubercular activity against rifampicin-resistant Mycobacterium tuberculosis H37Rv RIF-R2 ATCC 35828 after 5 days. Conditions: H37Rv RIF-R2 ATCC 35828, 120 h.

Turning to `O=C(NCCCCn1cnc([N+](=O)[O-])n1)c1sc2ccccc2c1Cl`, the MIC turned out to be 7.5 µM (≈ 2.85 µg/mL) in experiment [1]; 7.9 µM (≈ 3 µg/mL) in experiment [2]; 7.1 µM (≈ 2.7 µg/mL) in experiment [3]; 7.3 µM (≈ 2.77 µg/mL) in experiment [4]; 6.4 µM (≈ 2.43 µg/mL) in experiment [5].

As to `O=C(NCCCCn1cnc([N+](=O)[O-])n1)c1nc2ccccc2s1`, the minimum inhibitory concentration (MIC) is 11.1 µM (≈ 3.84 µg/mL) in experiment [1]; 8.9 µM (≈ 3.08 µg/mL) in experiment [2]; 8.2 µM (≈ 2.84 µg/mL) in experiment [3]; 7.9 µM (≈ 2.74 µg/mL) in experiment [4]; 7.9 µM (≈ 2.74 µg/mL) in experiment [5].

With `O=C(Cn1cnc([N+](=O)[O-])n1)N1CCN(Cc2ccc(Cl)c(Cl)c2)CC1`, the IC50 in experiment [1] came out at 9 µM; in experiment [2], 4.9 µM; in experiment [3], 7.4 µM; in experiment [4] it was 7.3 µM; in experiment [5] it was 9.4 µM. The IC90 in experiment [1] stood at 14 µM; in experiment [2], 8.3 µM; in experiment [3] it was 11 µM; in experiment [4], 12 µM; in experiment [5] it was 12 µM. The MIC in experiment [1] worked out at 14 µM (≈ 5.59 µg/mL); in experiment [2], 7.7 µM (≈ 3.07 µg/mL); in experiment [3], 12 µM (≈ 4.79 µg/mL); in experiment [4], 12 µM (≈ 4.79 µg/mL); in experiment [5] it was 12 µM (≈ 4.79 µg/mL).

For the compound `O=C(Cn1cnc([N+](=O)[O-])n1)N1CCN(C(c2ccccc2)c2ccc(Cl)cc2)CC1` (stereo not given), the IC50 in experiment [1] is 48 µM; in experiment [2] it was 27 µM; in experiment [3] it was 46 µM; in experiment [4], 29 µM; in experiment [5], 47 µM. For the same compound, the IC90 in experiment [1] turned out to be 82 µM; in experiment [2], 32 µM; in experiment [3], 78 µM; in experiment [4], 35 µM; in experiment [5], 68 µM. The minimum inhibitory concentration (MIC) in experiment [1] came out at 79 µM (≈ 34.8 µg/mL); in experiment [2], 42 µM (≈ 18.5 µg/mL); in experiment [3] it was 72 µM (≈ 31.7 µg/mL); in experiment [4], 45 µM (≈ 19.8 µg/mL); in experiment [5], 71 µM (≈ 31.3 µg/mL).

Turning to `CC(O)(Cn1cnc([N+](=O)[O-])n1)c1ccc(-c2ccc(C#N)cc2)cc1` (stereo not given), the MIC in experiment [1] was >200 µM; in experiment [2] it was >200 µM; in experiment [3], >200 µM; in experiment [4] it was > 200 µM; in experiment [5] it was > 200 µM.

As for `NNC(=O)c1ccncc1` [ISONIAZID], the MIC was >200 µM in experiment [1]; 0.31 µM (≈ 0.0425 µg/mL) in experiment [2]; 0.35 µM (≈ 0.048 µg/mL) in experiment [3]; > 200 µM in experiment [4]; 0.67 µM (≈ 0.0919 µg/mL) in experiment [5].

For `C[C@H]1COc2c(N3CCN(C)CC3)c(F)cc3c(=O)c(C(=O)O)cn1c23.C[C@H]1COc2c(N3CCN(C)CC3)c(F)cc3c(=O)c(C(=O)O)cn1c23.O` [LEVOFLOXACIN], the minimum inhibitory concentration (MIC) in experiment [1] amounted to 1.1 µM; in experiment [2] it was 0.85 µM; in experiment [3], 14 µM; in experiment [4] it was 1.3 µM; in experiment [5] it was 1.4 µM.

In the case of `CO[C@H]1/C=C/O[C@@]2(C)Oc3c(C)c(O)c4c(O)c(c(/C=N/N5CCN(C)CC5)c(O)c4c3C2=O)NC(=O)/C(C)=C\C=C\[C@H](C)[C@H](O)[C@@H](C)[C@@H](O)[C@@H](C)[C@H](OC(C)=O)[C@@H]1C` [RIFAMPIN], the MIC in experiment [1] is 0.012 µM (≈ 0.00988 µg/mL); in experiment [2], 7.2 µM (≈ 5.93 µg/mL); in experiment [3], >0.04 µM; in experiment [4], 0.011 µM (≈ 0.00905 µg/mL); in experiment [5], > 50 µM.
